From PMC5354814, “In silico and in vitro drug screening identifies new therapeutic approaches for Ewing sarcoma” (Oncotarget, 2016)

How the values were obtained:
[1] = Blood gold pharmacokinetics after i.p. auranofin suspension with ganetespib pre-treatment; format: in vivo, BALB/c mice
Text: As indicated previously, auranofin is a complex of gold triethylphosphine and thioglucose tetraacetate. Gold comprises 29% of auranofin by weight. Auranofin is chemically and metabolically highly unstable in solution. […] Following oral administration of ^195Au auranofin to humans, 25% of administered ^195Au appears in plasma. Further, approximately 40% of absorbed gold distributes into erythrocytes with 60% found in plasma. As a result, and consistent with the extensive literature describing auranofin pharmacokinetics in animals and humans, we characterized the pharmacokinetics of i.p. auranofin in mice by quantifying blood gold concentrations as summarized in Table 4. Peak blood gold concentrations were 12.43 μg/mL in mice receiving auranofin suspension preceded by i.v. ganetespib. […]
The single-dose […] pharmacokinetics of gold were characterized in 36 BALB/c mice following administration of a single 12 mg/kg i.p. suspension dose of auranofin. […] Whole blood aliquots of 500 μL obtained from each of the three animals per time point were assayed using a validated inductively coupled plasma mass spectrometry (ICPMS) method to quantify blood gold concentration. Mean blood gold concentrations were determined for each blood collection time point. […]

CHLA-258 = experiment: Hits validation, dose-response cell proliferation (CellTiter-Glo); format: cell-based; conditions: 12-point dose-response 50 μmol/L to 1 nmol/L, mean ± SD
Summary of the method: (§1)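 Dose-response proliferation test: drugs spanning 1 nmol/L–50 μmol/L were added one day after seeding 750–1,500 cells per well. CellTiter-Glo signal gave IC50s.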

Hs 863.T. = experiment: as above; format: cell-based; conditions: control cell line, 12-point dose-response, mean ± SD
Summary of the method: as §1

COG-E-352 = experiment: as above; format: cell-based; conditions: 12-point dose-response 50 μmol/L to 1 nmol/L, mean ± SD
Summary of the method: as §1

SK-ES-1 = experiment: as above; format: cell-based; conditions: 12-point dose-response 50 μmol/L to 1 nmol/L, mean ± SD
Summary of the method: as §1

Hs 822.T. = experiment: as above; format: cell-based; conditions: control cell line, 12-point dose-response, mean ± SD
Summary of the method: as §1

TC-71 = experiment: as above; format: cell-based; conditions: 12-point dose-response 50 μmol/L to 1 nmol/L, mean ± SD
Summary of the method: as §1

Which results are given for `CC(=O)OC[C@H]1O[C@@H]([S-])[C@H](OC(C)=O)[C@@H](OC(C)=O)[C@@H]1OC(C)=O.CCP(CC)CC.[Au+]` [Auranofin, auranofin]?
Trough gold concentration ([1]; 24 hours following the fifth once daily i.p. dose of 12 mg/kg): 23.9 µg/mL; Cmax ([1]; single i.p. 12 mg/kg auranofin suspension, ganetespib pre-treatment): 63.1 µM; IC50 (CHLA-258): 380 ± 190 nM; IC50 (Hs 863.T.): 3250 ± 120 nM; IC50 (COG-E-352): 820 ± 190 nM; IC50 (SK-ES-1): 80 nM; IC50 (Hs 822.T.): 1450 ± 90 nM; IC50 (TC-71): 260 ± 140 nM
